{"source": "paper PMC9867837", "about": "(Cancer letters, 2022)", "key": {"[1]": {"system": "MDA-MB-231 cells", "assay": "CyQuant viable cell number assay, MDA-MB-231", "type": "cell-based, human", "procedure": "(§1) CyQuant assay was performed to evaluate compounds as previously reported. Details are presented in Supplementary Information, “Methods”. […]\n(§2) 1.2.6. Cell viability assays\n(§3) CyQuant assay was performed to evaluate compounds as previously reported [1 -3] . Briefly, cells (5 x 10^3 per well, 100 µl) in culture in 96-well plates were treated once with 0 -10 µM concentrations of H120, H105, […]\n(§4) concentration of H182 for 6 h and then treated with 0- 100 nM docetaxel or 0-20 µM cisplatin for a total of 72 h. Viable cell numbers were assessed by a CyQuant cell proliferation kit according to the manufacturer’s instructions (Thermo/Life Technologies Corp, Carlsbad, CA). Viable cell numbers were normalized to that of DMSO (control)-treated samples. […]"}, "[2]": {"target": "T1, Stat3:Stat3 DNA-binding activity (Mus musculus, UniProt P42227)", "T1 construct": "endogenous in cells; host or cells: NIH3T3/v-Src fibroblasts; EGF-stimulated NIH3T3/hEGFR fibroblasts (nuclear extracts)", "T1 sequence (P42227 2-770 limits assumed)": "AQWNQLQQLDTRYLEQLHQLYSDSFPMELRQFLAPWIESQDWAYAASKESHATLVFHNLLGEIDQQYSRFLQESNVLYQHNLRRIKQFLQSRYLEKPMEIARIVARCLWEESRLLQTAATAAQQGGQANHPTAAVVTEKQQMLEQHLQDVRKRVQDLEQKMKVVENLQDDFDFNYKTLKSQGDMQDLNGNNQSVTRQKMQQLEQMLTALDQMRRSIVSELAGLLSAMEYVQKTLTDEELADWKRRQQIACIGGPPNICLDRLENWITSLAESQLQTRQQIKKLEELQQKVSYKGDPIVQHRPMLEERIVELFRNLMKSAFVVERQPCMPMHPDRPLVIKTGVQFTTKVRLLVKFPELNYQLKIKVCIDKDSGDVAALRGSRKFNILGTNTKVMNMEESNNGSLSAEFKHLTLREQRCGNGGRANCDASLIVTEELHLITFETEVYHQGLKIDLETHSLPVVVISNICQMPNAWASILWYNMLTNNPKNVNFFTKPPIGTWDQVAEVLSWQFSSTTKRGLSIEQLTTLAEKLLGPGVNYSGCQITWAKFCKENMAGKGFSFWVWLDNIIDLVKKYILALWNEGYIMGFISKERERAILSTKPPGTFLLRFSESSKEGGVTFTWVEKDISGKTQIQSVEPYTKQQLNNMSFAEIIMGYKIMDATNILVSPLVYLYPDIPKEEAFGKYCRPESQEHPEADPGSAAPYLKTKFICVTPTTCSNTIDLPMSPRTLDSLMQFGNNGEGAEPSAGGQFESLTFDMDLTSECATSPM", "assay": "EMSA of Stat3:Stat3 DNA-binding activity in nuclear extracts", "type": "biochemical", "conditions": "for Stat3-inhibitory potency on replacing the para-fluorine: EMSA", "procedure": "(§5) Details are presented in Supplementary Information, “Methods”. […]\n(§6) min, prior to incubation with the radiolabeled probe for 30 min at 30 °C and subjecting to EMSA analysis.\n(§7) In another case, the nuclear extract was pre-incubated with the radiolabeled probe for 30 min at 30 °C prior to incubation with increasing concentration of H182 at room temperature for 30 min and subjecting to EMSA analysis. Bands corresponding to Stats DNA- binding activities were scanned and quantified using ImageJ and plotted as a percentage of control (vehicle) against the concentration of the inhibitor, from which the IC50 values were derived ."}, "[3]": {"target": "T2, Stat1:Stat3 DNA-binding activity (Mus musculus, UniProt P42227)", "T2 construct": "endogenous in cells; host or cells: EGF-stimulated NIH3T3/hEGFR fibroblasts (nuclear extract)", "T2 sequence (P42227 2-770 limits assumed, one chain of several)": "as the sequence (P42227 2-770 limits assumed) above", "assay": "EMSA of Stat1:Stat3 DNA-binding activity in nuclear extracts of EGF-stimulated NIH3T3/hEGFR", "type": "biochemical", "conditions": "Fig. 1C, hSIE probe, 30 min", "procedure": "as §5, §6, §7"}, "[4]": {"target": "T3, Stat1:Stat1 DNA-binding activity (Mus musculus, UniProt P42225)", "T3 construct": "endogenous in cells; host or cells: EGF-stimulated NIH3T3/hEGFR fibroblasts (nuclear extract)", "T3 sequence (P42225 2-749 limits assumed)": "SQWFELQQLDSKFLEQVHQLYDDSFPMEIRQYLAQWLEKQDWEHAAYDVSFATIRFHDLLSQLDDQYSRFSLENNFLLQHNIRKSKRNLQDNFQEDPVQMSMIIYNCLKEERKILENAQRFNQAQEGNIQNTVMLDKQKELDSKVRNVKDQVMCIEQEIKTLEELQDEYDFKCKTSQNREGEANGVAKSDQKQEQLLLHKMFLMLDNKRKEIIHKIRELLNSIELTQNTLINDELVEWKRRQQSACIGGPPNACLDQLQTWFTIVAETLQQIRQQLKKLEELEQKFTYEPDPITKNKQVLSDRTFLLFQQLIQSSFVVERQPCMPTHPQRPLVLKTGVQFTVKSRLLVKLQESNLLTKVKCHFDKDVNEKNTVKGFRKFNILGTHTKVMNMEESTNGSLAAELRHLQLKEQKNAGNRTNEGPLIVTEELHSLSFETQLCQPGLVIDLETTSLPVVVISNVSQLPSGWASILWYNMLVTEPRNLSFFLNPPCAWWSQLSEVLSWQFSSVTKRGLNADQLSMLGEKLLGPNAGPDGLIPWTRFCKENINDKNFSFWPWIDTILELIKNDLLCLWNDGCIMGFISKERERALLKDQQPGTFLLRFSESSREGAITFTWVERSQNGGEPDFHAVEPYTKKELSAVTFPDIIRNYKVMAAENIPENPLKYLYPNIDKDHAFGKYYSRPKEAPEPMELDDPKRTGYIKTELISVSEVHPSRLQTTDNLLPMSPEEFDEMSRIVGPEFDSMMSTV", "assay": "EMSA of Stat1:Stat1 DNA-binding activity in nuclear extracts of EGF-stimulated NIH3T3/hEGFR", "type": "biochemical", "conditions": "Fig. 1C, 30 min", "procedure": "(§8) These studies were carried out as previously described using the ^32P-labeled oligonucleotide probes, hSIE (high affinity sis-inducible element from the c-fos gene, m67 variant, 5^′-[…]) that binds Stat1 and Stat3 [11, 12] and the mammary gland factor element (MGFe) from the bovine β–casein gene promoter (sense strand, 5^′-[…]) that binds Stat5 and Stat1 [11, 12]. Details are presented in Supplementary Information, “Methods”. […]\nas §6, §7"}, "[5]": {"target": "Stat5:Stat5 DNA-binding activity", "assay": "EMSA of Stat5:Stat5 DNA-binding activity in nuclear extracts of EGF-stimulated NIH3T3/hEGFR", "type": "biochemical, mouse", "conditions": "Fig. 1C, MGFe probe, 30 min", "procedure": "as §8, §6, §7"}, "[6]": {"system": "MDA-MB-468 cells", "assay": "CyQuant viable cell number assay, MDA-MB-468", "type": "cell-based, human", "conditions": "Homo sapiens, MDA-MB-468, 72 h, read-out: IC50 viable cell numbers, MDA-MB-468", "procedure": "as §1, §2, §3, §4"}, "[7]": {"target": "SH2 domain of pure recombinant Stat3 (Homo sapiens, UniProt P40763)", "sequence (P40763 whole entry, the tested form may be a part)": "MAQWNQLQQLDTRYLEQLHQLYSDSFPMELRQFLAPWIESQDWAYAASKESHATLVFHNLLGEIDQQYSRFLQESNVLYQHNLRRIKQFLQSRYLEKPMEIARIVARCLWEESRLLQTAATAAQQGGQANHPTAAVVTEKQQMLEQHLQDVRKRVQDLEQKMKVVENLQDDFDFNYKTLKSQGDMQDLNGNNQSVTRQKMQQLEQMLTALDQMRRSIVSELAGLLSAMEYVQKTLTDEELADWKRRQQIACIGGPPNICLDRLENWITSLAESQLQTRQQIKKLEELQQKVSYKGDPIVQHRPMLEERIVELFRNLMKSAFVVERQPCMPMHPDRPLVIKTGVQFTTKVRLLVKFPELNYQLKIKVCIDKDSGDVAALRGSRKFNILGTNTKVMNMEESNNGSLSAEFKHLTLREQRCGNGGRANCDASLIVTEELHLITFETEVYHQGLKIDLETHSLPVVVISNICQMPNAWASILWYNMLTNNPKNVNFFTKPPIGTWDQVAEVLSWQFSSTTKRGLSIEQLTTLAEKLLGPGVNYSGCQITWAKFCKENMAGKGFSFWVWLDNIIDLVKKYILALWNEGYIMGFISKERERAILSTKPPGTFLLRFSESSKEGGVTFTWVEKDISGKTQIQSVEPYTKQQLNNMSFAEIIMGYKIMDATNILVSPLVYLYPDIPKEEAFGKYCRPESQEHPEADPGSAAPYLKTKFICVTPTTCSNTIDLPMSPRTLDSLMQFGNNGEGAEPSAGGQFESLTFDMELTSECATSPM", "assay": "Stat3 fluorescence polarization (FP) assay", "type": "binding", "conditions": "0–10 μM, 5-carboxyfluorescein-GpYLPQTV-NH2 probe", "procedure": "Details are presented in Supplementary Information, “Methods”.\nThe Stat3:azetidine compound interaction was investigated further by focusing on how the compounds might interfere with Stat3 dimerization (Stat3:Stat3), which occurs via pTyr peptide:SH2 domain interaction. […]\nconfocal microscope (Stellaris 8-STED Super -resolution , Germany) with a 60x oil lens and images were processed by ImageJ software.\n1.2.9. Fluorescence polarization assay (FP)\nThese studies were conducted as previously reported using the labeled phosphopeptide, 5-carboxyfluorescein GpYLPQTV-NH 2 (where pY represents phospho-Tyr) as probe and purified recombinant Stat3, with some modifications. […]\n10 µM of unlabeled GpYLPQTV-NH 2 (positive control) or H182 at 30 °C for 30 min in the indicated assay buffer conditions, prior to the addition of the labeled probe at 10 nM final concentration and incubated for 30 min at room temperature, and thereafter reading the FP signal at 10, 30, and 60 min using the SpectraMax ID5 (Molecular Devices, San Jose, CA), with the set gain adjustment at 35 mP. In some cases, the recombinant His-Stat3 was pre-incubated with the unlabeled GpYLPQTV-NH 2 or H182 at 0-10 µM for 10 min or at 0-50 µM for 30 min prior to incubation with the labeled probe, and thereafter reading the FP signal at 10, 30, or 60 min using the SpectraMax ID5, with the set gain adjustment at 35 mP.\n1.2.10. […]"}, "[8]": {"system": "MDA-MB-231 tumor xenografts", "assay": "Subcutaneous MDA-MB-231 xenografts in athymic nude mice", "type": "in vivo", "procedure": "Mice were housed in specific pathogen-free conditions in the animal facility. All animal experiments were conducted in accordance with the recommendations in the Guide for the Care and Use of Laboratory Animals on a protocol approved by the Institutional Animal Care and Use Committee (IACUC). Subcutaneous xenograft studies were performed as previously reported. Five-week-old female athymic nude mice were purchased from Envigo (Indianapolis, IN) or Charles River (Wilmington, MA) and maintained in the institutional animal facilities approved by the American Association for Accreditation of Laboratory Animal Care. […] Tumor sizes were monitored every 3–4 days, measured with calipers, and converted to tumor volume, V, according to the formula V = 0.52 × a^2 × b, where a, smallest superficial diameter, and b, largest superficial diameter. For each treatment group, the tumor volumes for each set of measurements were statistically analyzed relative to the control (DMSO-treated; 70% DMSO with sterile PBS) group.\nConstitutively-active Stat3 promotes primary tumor development and the progression to therapy resistance. We proceeded to evaluate the in vivo antitumor efficacy against tumor growth in both human xenograft and mouse syngeneic models of TNBC. In four separate studies, we tested the efficacy of H182, H278 (HCl salt of H182), and H120. For these xenografts, the human breast cancer, MDA-MB-231 cells were injected subcutaneously into athymic nude mice. When tumors were palpable (80–120 mm^3), mice were grouped so that the mean tumor sizes were identical between groups and treated as follows: A) intraperitoneal (IP) injections of H182 at 10 mg/kg every other day for 33 days; B) oral gavage of H182 every day at 5 mg/kg for 20 days, and then increased to 20 mg/kg for additional 12 days; and C) oral gavage of H120 at 20 mg/kg, daily for 14 days, and then increased to 30 mg/kg, daily for additional 14 days."}, "[9]": {"conditions": "Table 1, replacement of p-fluorine (R1), read-out: EMSA IC50"}, "[10]": {"conditions": "Fig. 1C, extracts of EGF-stimulated NIH3T3/hEGFR, hSIE probe, 30 min, read-out: IC50 Stat3:Stat3"}, "[11]": {"conditions": "range over the named compounds and incubation times, read-out: IC50 Stat3 DNA-binding activity in vitro (summary range)"}, "[12]": {"conditions": "first Stat1:Stat1 value listed (hSIE probe)"}, "[13]": {"conditions": "second Stat1:Stat1 value listed (MGFe probe)"}, "[14]": {"conditions": "Homo sapiens, MDA-MB-231, read-out: IC50 viable cell numbers, MDA-MB-231, CyQuant, 72 h"}}, "note": "Like-named read-outs stand apart in the source and are kept apart here. Non-standard residues stand in square brackets, D forms with d. No end group written: not given here. pY = N[C@@H](Cc1ccc(OP(=O)(O)O)cc1)C(=O)O", "data": [{"compound": "N.N.[Cl][Pt][Cl]", "note": "[cisplatin, reference compound]", "values": [{"measurement": "IC50", "setting": "[1]; MDA-MB-231, DMSO or 1 μM H182 pre-treatment 6 h, then docetaxel or cisplatin, total 72 h, read-out: IC50 of chemotherapeutic agent alone or with H182", "value": 7, "unit": "µM"}]}, {"compound": "O=C(O)c1ccc(N(Cc2cnc(C3CCCCC3)cn2)C(=O)[C@H]2CCN2S(=O)(=O)c2c(F)c(F)c(Cl)c(F)c2F)cc1O", "note": "[Compound H186]", "values": [{"measurement": "Stat3-inhibitory potency on replacing the para-fluorine", "setting": "[2]", "value": "loss of Stat3-inhibitory potency"}, {"measurement": "IC50", "setting": "[2]; [9]", "value": "> 30", "unit": "µM"}]}, {"compound": "O=C(NO)c1ccc(N(Cc2ccc(C3CCCCC3)cc2)C(=O)[C@H]2CCN2S(=O)(=O)c2c(F)c(F)c(F)c(F)c2F)c(F)c1", "note": "[Compound H105]", "values": [{"measurement": "IC50", "setting": "[2]; [10]", "value": 1.8, "unit": "µM"}, {"measurement": "IC50", "setting": "[2]; [11]", "value": "1.75 to 2.07", "unit": "µM"}, {"measurement": "IC50", "setting": "[3]", "value": 8.3, "unit": "µM"}, {"measurement": "IC50", "setting": "[4]; [12]", "value": 15.8, "unit": "µM"}, {"measurement": "IC50", "setting": "[4]; [13]", "value": "> 20", "unit": "µM"}, {"measurement": "IC50", "setting": "[5]", "value": 20, "unit": "µM"}, {"measurement": "IC50", "setting": "[1]; [14]", "value": "2.6 to 3.6", "unit": "µM"}, {"measurement": "IC50", "setting": "[6]", "value": "2.6 to 3.6", "unit": "µM"}]}, {"compound": "O=C(O)c1ccc(N(Cc2cnc(C3CCCCC3)cn2)C(=O)[C@H]2CCN2S(=O)(=O)c2c(F)c(F)cc(F)c2F)cc1O", "note": "[Compound H176]", "values": [{"measurement": "Stat3-inhibitory potency on replacing the para-fluorine", "setting": "[2]", "value": "loss of Stat3-inhibitory potency"}, {"measurement": "IC50", "setting": "[2]; [9]", "value": "> 30", "unit": "µM"}]}, {"compound": "GpYLPQTV-NH2 (G[pY]LPQTV-NH2) [reference compound]", "values": [{"measurement": "Effect on FP signal", "setting": "[7]", "value": "dose-dependent reduction of the FP signal down to the baseline of 45–50 mP"}]}, {"compound": "O=C(NO)c1ccc(N(Cc2ccc(C3CCOCC3)cc2)C(=O)[C@H]2CCN2S(=O)(=O)c2c(F)c(F)c(F)c(F)c2F)cc1O", "note": "[Compound H120]", "values": [{"measurement": "IC50", "setting": "[2]; [10]", "value": 2.1, "unit": "µM"}, {"measurement": "IC50", "setting": "[2]; [11]", "value": "1.75 to 2.07", "unit": "µM"}, {"measurement": "IC50", "setting": "[3]", "value": 7.2, "unit": "µM"}, {"measurement": "IC50", "setting": "[4]; [12]", "value": "> 20", "unit": "µM"}, {"measurement": "IC50", "setting": "[4]; [13]", "value": "> 20", "unit": "µM"}, {"measurement": "IC50", "setting": "[5]", "value": "> 20", "unit": "µM"}, {"measurement": "IC50", "setting": "[1]; [14]", "value": "2.6 to 3.6", "unit": "µM"}, {"measurement": "IC50", "setting": "[6]", "value": "2.6 to 3.6", "unit": "µM"}, {"measurement": "Tumor growth, MDA-MB-231 xenografts", "setting": "[8]; H120 oral gavage daily 20 mg/kg for 14 days, then 30 mg/kg for 14 days", "value": "significant tumor growth inhibition"}, {"measurement": "Body weights and obvious signs of toxicity", "setting": "[8]; the three xenograft studies", "value": "No notable changes"}]}]}
